Test results: patent US10544130B2, “Metallo-beta-lactamase inhibitors” (priority 2015, dated 2020)

Test system: Pseudomonas aeruginosa PAO1 MB9798 (efflux+, IMP-1)
Details: ratio MITC95 PA 9798/MITC95 PA 9799; imipenem at 2 μg/mL
Procedure, shortened: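 Isogenic PAO1 pair (efflux+ MB9798, efflux− MB9799, both IMP-1) tested by microbroth MIC with fixed imipenem and/or ceftazidime, usually at CLSI breakpoint, plus fixed class A/C inhibitor against AmpC. MBL inhibitor titrated; concentration restoring susceptibility recorded and fold difference between strains taken as efflux extent.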

| Structure (SMILES) | Efflux ratio |
| --- | --- |
| Nc1nc2c(-c3ccc(S(=O)(=O)NCC4CCN4)c(S(N)(=O)=O)c3-c3nn[nH]n3)cccc2[nH]1 (stereo not drawn) [Example 207, 4-(2-amino-1H-benzo[d]imidazol-4-yl)-N1-(azetidin-2-ylmethyl)-3-(2H-tetrazol-5-yl)benzene-1,2-disulfonamide] | 2.00 |
| C[C@H](CN)NS(=O)(=O)c1ccc(-c2cccc3[nH]nnc23)c(-c2nn[nH]n2)c1S(N)(=O)=O [Example 237, (R)-N^1-(1-aminopropan-2-yl)-4-(1H-benzo[d][1,2,3]triazol-4-yl)-3-(2H-tetrazol-5-yl)benzene-1,2-disulfonamide] | 0.50 |
| NCCNS(=O)(=O)c1ccc(-c2cccc3[nH]c(N)nc23)c(-c2nn[nH]n2)c1S(N)(=O)=O [Example 12, 4-(2-amino-1H-benzo[d]imidazol-4-yl)-N^1-(2-aminoethyl)-3-(2H-tetrazol-5-yl)benzene-1,2-disulfonamide] | 0.75 |
| N#Cc1cccc(-c2ccc(S(=O)(=O)N[C@@H]3CCNC3)c(S(N)(=O)=O)c2-c2nnn[nH]2)c1N [Example 132, (R)-2′-amino-3′-cyano-N4-(pyrrolidin-3-yl)-2-(1H-tetrazol-5-yl)-[1,1′-biphenyl]-3,4-disulfonamide] | 4.00 |
| CS(=O)(=O)Nc1nc2c(-c3ccc(S(=O)(=O)N4CCNCC4)c(S(N)(=O)=O)c3-c3nn[nH]n3)cccc2s1 [Example 156, 3-(2-(Methylsulfonamido)benzo[d]thiazol-4-yl)-6-(piperazin-1-ylsulfonyl)-2-(2H-tetrazol-5-yl)benzenesulfonamide] | 2.00 |
| CO[C@H]1CNC[C@@H]1NS(=O)(=O)c1ccc(-c2cccc3sc(N)nc23)c(-c2nnn[nH]2)c1S(N)(=O)=O.O=C(O)C(F)(F)F [Example 108, (3S,4S)-3-(4-(2-aminobenzo[d]thiazol-4-yl)-2-sulfamoyl-3-(1H-tetrazol-5-yl)phenylsulfonamido)-4-methoxypyrrolidin-1-ium 2,2,2-trifluoroacetate] | 1.00 |
| CC(N)CNS(=O)(=O)c1ccc(-c2cccc3sc(N)nc23)c(-c2nnn[nH]2)c1S(N)(=O)=O.O=C(O)C(F)(F)F (stereo not drawn) [Example 109, l-(4-(2-aminobenzo[d]thiazol-4-yl)-2-sulfamoyl-3-(1H-tetrazol-5-yl)phenylsulfonamido) propan-2-aminium 2,2,2-trifluoroacetate] | 0.50 |
| Nc1nc2c(-c3ccc(S(=O)(=O)NCCC(N)CF)c(S(N)(=O)=O)c3-c3nnn[nH]3)cccc2s1.O=CO (stereo not drawn) [Example 123, 4-(4-(2-aminobenzo[d]thiazol-4-yl)-2-sulfamoyl-3-(1H-tetrazol-5-yl)phenylsulfonamido)-l-fluorobutan-2-aminium formate] | 1.00 |
| CN(C1CCCNC1)S(=O)(=O)c1ccc(-c2cccc3sc(N)nc23)c(-c2nnn[nH]2)c1S(N)(=O)=O (stereo not drawn) [Example 64, 4-(2-amino-1,3-benzothiazol-4-yl)-N1-methyl-N1-piperidin-3-yl-3-(1H-tetrazol-5-yl)benzene-1,2-disulfonamide] | 2.00 |
| Nc1nc2c(-c3ccc(S(=O)(=O)NC4CNC4)c(S(N)(=O)=O)c3-c3nn[nH]n3)cccc2s1 [Example 146, 4-(2-aminobenzo[d]thiazol-4-yl)-N1-(azetidin-3-yl)-3-(2H-tetrazol-5-yl)benzene-1,2-disulfonamide] | 0.50 |
| NS(=O)(=O)c1c(S(=O)(=O)N[C@H]2CCNC2)ccc(-c2cccc3[nH]cnc23)c1-c1nn[nH]n1 [Example 197, 4-(1H-benzo[d]imidazol-4-yl)-N^1—((S)-pyrrolidin-3-yl)-3-(2H-tetrazol-5-yl)benzene-1,2-disulfonamide] | 1.00 |
| CNc1ccc(-c2ccc(S(=O)(=O)NCCN)c(S(N)(=O)=O)c2-c2nn[nH]n2)cn1 [Example 243, N^1-(2-aminoethyl)-4-(6-(methylamino)pyridin-3-yl)-3-(2H-tetrazol-5-yl)benzene-1,2-disulfonamide] | 1.00 |
| NC[C@H](O)CNS(=O)(=O)c1ccc(-c2ccncc2N)c(-c2nn[nH]n2)c1S(N)(=O)=O [Example 222, (S)—N1-(3-amino-2-hydroxypropyl)-4-(3-aminopyridin-4-yl)-3-(2H-tetrazol-5-yl)benzene-1,2-disulfonamide] | 1.00 |
| Nc1nc2c(-c3ccc(S(=O)(=O)N[C@H]4CCCNC4)c(S(N)(=O)=O)c3-c3nnn[nH]3)cccc2[nH]1 [Example 179, (S)-4-(2-amino-1H-benzo[d]imidazol-4-yl)-N^1-(piperidin-3-yl)-3-(1H-tetrazol-5-yl)benzene-1,2-disulfonamide] | 2.00 |
| NCCOCCNS(=O)(=O)c1ccc(-c2cccc3sc(N)nc23)c(-c2nnn[nH]2)c1S(N)(=O)=O [Example 203, 4-(2-aminobenzo[d]thiazol-4-yl)-N^1-(2-(2-aminoethoxy)ethyl)-3-(1H-tetrazol-5-yl)benzene-1,2-disulfonamide] | 0.50 |
| Nc1nc2c(-c3ccc(S(=O)(=O)N[C@@H]4CNC[C@@H]4F)c(S(N)(=O)=O)c3-c3nnn[nH]3)cccc2s1 [Example 58, 4-(2-amino-1,3-benzothiazol-4-yl)-N1-[(3R,4S)-4-fluoropyrrolidin-3-yl]-3-(1H-tetrazol-5-yl)benzene-1,2-disulfonamide] | 1.00 |
| NCC(CN)NS(=O)(=O)c1ccc(-c2cccc(-c3nc[nH]n3)c2)c(-c2nn[nH]n2)c1S(N)(=O)=O [Example 227, N4-(1,3-diaminopropan-2-yl)-2-(2H-tetrazol-5-yl)-3′-(1H-1,2,4-triazol-3-yl)-[1,1′-biphenyl]-3,4-disulfonamide] | 1.00 |
| Nc1nc2c(-c3ccc(S(=O)(=O)N4CC[C@@H](F)[C@H](N)C4)c(S(N)(=O)=O)c3-c3nn[nH]n3)cccc2[nH]1 [Example 205, 3-(2-amino-1H-benzo[d]imidazol-4-yl)-6-(((3R,4R)-3-amino-4-fluoropiperidin-1-yl)sulfonyl)-2-(2H-tetrazol-5-yl)benzenesulfonamide] | 8.00 |
| CN([C@H]1CCNC1)S(=O)(=O)c1ccc(-c2cccc3sc(N)nc23)c(-c2nnn[nH]2)c1S(N)(=O)=O [Example 65, 4-(2-amino-1,3-benzothiazol-4-yl)-N1-methyl-N1-[(3S)-pyrrolidin-3-yl]-3-(1H-tetrazol-5-yl)benzene-1,2-disulfonamide] | 2.00 |
| Nc1nc2c(-c3ccc(S(=O)(=O)N[C@H]4CCCNC4)c(S(N)(=O)=O)c3-c3nnn[nH]3)cccc2s1 [Example 67, 4-(2-amino-1,3-benzothiazol-4-yl)-N1-[(3S)-piperidin-3-yl]-3-(1H-tetrazol-5-yl)benzene-1,2-disulfonamide] | 1.00 |
| CN1CC[C@@H](NS(=O)(=O)c2ccc(-c3cccc4[nH]c(N)nc34)c(-c3nn[nH]n3)c2S(N)(=O)=O)C1 [Example 232, (R)-4-(2-amino-1H-benzo[d]imidazol-4-yl)-N^1-(1-methylpyrrolidin-3-yl)-3-(2H-tetrazol-5-yl)benzene-1,2-disulfonamide] | 2.00 |
| C[C@H](CN)NS(=O)(=O)c1ccc(-c2cccnc2N)c(-c2nn[nH]n2)c1S(N)(=O)=O [Example 212, (R)-N1-(1-aminopropan-2-yl)-4-(2-aminopyridin-3-yl)-3-(2H-tetrazol-5-yl)benzene-1,2-disulfonamide] | 1.00 |
| Nc1nc2c(-c3ccc(S(=O)(=O)N4CC5(CCNC5)C4)c(S(N)(=O)=O)c3-c3nnn[nH]3)cccc2s1 [Example 48, 3-(2-amino-1,3-benzothiazol-4-yl)-6-(2,6-diazaspiro[3.4]oct-2-ylsulfonyl)-2-(1H-tetrazol-5-yl)benzenesulfonamide] | 1.00 |
| COCCNCCNS(=O)(=O)c1ccc(-c2cccc3sc(N)nc23)c(-c2nnn[nH]2)c1S(N)(=O)=O [Example 85, 4-(2-aminobenzo[d]thiazol-4-yl)-N1-(2-((2-methoxyethyl)amino)ethyl)-3-(1H-tetrazol-5-yl)benzene-1,2-disulfonamide] | 1.00 |
| NCc1nc2c(-c3ccc(S(=O)(=O)NC[C@H](O)CN)c(S(N)(=O)=O)c3-c3nn[nH]n3)cccc2s1 [Example 300, (R)—N1-(3-amino-2-hydroxypropyl)-4-(2-(aminomethyl)benzo[d]thiazol-4-yl)-3-(2H-tetrazol-5-yl)benzene-1,2-disulfonamide] | 1.00 |
| C[C@H](CN)NS(=O)(=O)c1ccc(-c2cccc(N)n2)c(-c2nn[nH]n2)c1S(N)(=O)=O [Example 318, (R)—N1-(1-aminopropan-2-yl)-4-(6-aminopyridin-2-yl)-3-(2H-tetrazol-5-yl) benzene-1,2-disulfonamide] | 1.00 |
| NC[C@@H](O)CNS(=O)(=O)c1ccc(-c2cccc3[nH]cnc23)c(-c2nn[nH]n2)c1S(N)(=O)=O [Example 301, (R)-4-(1H-benzo[d]imidazol-4-yl)-N1-(3-amino-2-hydroxypropyl)-3-(2H-tetrazol-5-yl)-benzene-1,2-disulfonamide] | 1.00 |
| Nc1ccc(-c2ccc(S(=O)(=O)NC[C@@]3(N)CCNC3)c(S(N)(=O)=O)c2-c2nn[nH]n2)cn1 [Example 369, (R)-4-(6-aminopyridin-3-yl)-N1-((3-aminopyrrolidin-3-yl)methyl)-3-(2H-tetrazol-5-yl)benzene-1,2-disulfonamide] | 1.00 |
| NS(=O)(=O)c1c(S(=O)(=O)N[C@@H]2CCNC2)ccc(-c2cccc3cn[nH]c23)c1-c1nnn[nH]1 [Example 139, (R)-4-(1H-indazol-7-yl)-N1-(pyrrolidin-3-yl)-3-(1H-tetrazol-5-yl)benzene-1,2-disulfonamide] | 1.00 |
| Nc1nc2c(-c3ccc(S(=O)(=O)N[C@H]4CN[C@@H](CO)C4)c(S(N)(=O)=O)c3-c3nnn[nH]3)cccc2[nH]1 [Example 173, 4-(2-amino-1H-benzo[d]imidazol-4-yl)-N^1-((3R,5R)-5-(hydroxymethyl)pyrrolidin-3-yl)-3-(1H-tetrazol-5-yl)benzene-1,2-disulfonamide] | 1.00 |
